# Laboratory results from patent US9828393B2, “Silylalkyloxyaryl compounds and methods for treating cancer” (THE REGENTS OF THE UNIVERSITY OF COLORADO, a body corporate, priority 2013, dated 2017).
# Tests used:
# [1] = tested on: Breast Cancer cell lines; assay: NCI-60 cell line screen, Breast Cancer panel average; type: cell-based, human; conditions: Homo sapiens, read-out: GI50 Average
# Method: (§1) Drug sensitivity data are provided as GI50s (concentrations required to inhibit growth by 50%). The first row of the text file identifies cell lines, separated by tabs. Subsequent rows contain compound number, compound name, and GI50 for each cell line, each separated by a tab. […] For a typical screening experiment, cells are inoculated into 96 well microtiter plates in 100 μL at plating densities ranging from 5,000 to 40,000 cells/well depending on the doubling time of individual cell lines. After cell inoculation, the microtiter plates are incubated at 37° C., 5% CO2, 95% air and 100% relative humidity for 24 h prior to addition of experimental drugs. After 24 h, two plates of each cell line are fixed in situ with TCA, to represent a measurement of the cell population for each cell line at the time of drug addition (Tz). Experimental drugs are solubilized in dimethyl sulfoxide at 400-fold the desired final maximum test concentration and stored frozen prior to use. At the time of drug addition, an aliquot of frozen concentrate is thawed and diluted to twice the desired final maximum test concentration with complete medium containing 50 μg/ml gentamicin. Additional four, 10-fold or one-half log serial dilutions are made to provide a total of five drug concentrations plus control. Aliquots of 100 μl of these different drug dilutions are added to the appropriate microtiter wells already containing 100 μl of medium, resulting in the required final drug concentrations. Following drug addition, the plates are incubated for an additional 48 h at 37° C., 5% CO2, 95% air, and 100% relative humidity. For adherent cells, the assay is terminated by the addition of cold TCA. Cells are fixed in situ by the gentle addition of 50 μl of cold 50% (w/v) TCA (final concentration, 10% TCA) and incubated for 60 minutes at 4° C. The supernatant is discarded, and the plates are washed five times with tap water and air dried. Sulforhodamine B (SRB) solution (100 μl) at 0.4% (w/v) in 1% acetic acid is added to each well, and plates are incubated for 10 minutes at room temperature. After staining, unbound dye is removed by washing five times with 1% acetic acid and the plates are air dried. Bound stain is subsequently solubilized with 10 mM trizma base, and the absorbance is read on an automated plate reader at a wavelength of 515 nm. For suspension cells, the methodology is the same except that the assay is terminated by fixing settled cells at the bottom of the wells by gently adding 50 μl of 80% TCA (final concentration, 16% TCA). Using the seven absorbance measurements [time zero, (Tz), control growth, (C), and test growth in the presence of drug at the five concentration levels (Ti)], the percentage growth is calculated at each of the drug concentrations levels. […]
# [2] = tested on: DU145; assay: NCI-60 cell line screen (SRB), DU145; type: cell-based, human; conditions: Homo sapiens, DU-145, 48 h
# Method: as §1
# [3] = tested on: BT-549; assay: NCI-60 cell line screen (SRB), BT-549; type: cell-based, human; conditions: Homo sapiens, BT-549, 48 h
# Method: as §1
# [4] = tested on: NCI/ADR-RES; assay: NCI-60 cell line screen (SRB), NCI/ADR-RES; type: cell-based, human; conditions: Homo sapiens, 48 h
# Method: as §1
# [5] = tested on: NCI-H322M; assay: NCI-60 cell line screen (SRB), NCI-H322M; type: cell-based, human; conditions: Homo sapiens, 48 h
# Method: as §1
# [6] = tested on: MDA-MB-468; assay: NCI-60 cell line screen (SRB), MDA-MB-468; type: cell-based, human; conditions: Homo sapiens, MDA-MB-468, 48 h
# Method: as §1
# [7] = tested on: SK-MEL-5; assay: NCI-60 cell line screen (SRB), SK-MEL-5; type: cell-based, human; conditions: Homo sapiens, SK-MEL-5, 48 h
# Method: as §1
# [8] = tested on: OVCAR-5; assay: NCI-60 cell line screen (SRB), OVCAR-5; type: cell-based, human; conditions: Homo sapiens, OVCAR-5, 48 h
# Method: as §1
# [9] = tested on: Melanoma cell lines; assay: NCI-60 cell line screen, Melanoma panel average; type: cell-based, human; conditions: Homo sapiens, read-out: GI50 Average
# Method: as §1
# [10] = tested on: COLO 205; assay: NCI-60 cell line screen (SRB), COLO 205; type: cell-based, human; conditions: Homo sapiens, COLO 205, 48 h
# Method: as §1
# [11] = tested on: MCF-7; assay: NCI-60 cell line screen (SRB), MCF-7; type: cell-based, human; conditions: Homo sapiens, MCF7, 48 h
# Method: as §1
# [12] = tested on: SK-MEL-28; assay: NCI-60 cell line screen (SRB), SK-MEL-28; type: cell-based, human; conditions: Homo sapiens, SK-MEL-28, 48 h
# Method: as §1
# [13] = tested on: SNB-19; assay: NCI-60 cell line screen (SRB), SNB-19; type: cell-based, human; conditions: Homo sapiens, SNB-19, 48 h
# Method: as §1
# [14] = tested on: A-498; assay: NCI-60 cell line screen (SRB), A-498; type: cell-based, human; conditions: Homo sapiens, A498, 48 h
# Method: as §1
# [15] = tested on: ACHN; assay: NCI-60 cell line screen (SRB), ACHN; type: cell-based, human; conditions: Homo sapiens, 48 h
# Method: as §1
# [16] = tested on: M14; assay: NCI-60 cell line screen (SRB), M14; type: cell-based, human; conditions: Homo sapiens, M14, 48 h
# Method: as §1
# [17] = tested on: UO-31; assay: NCI-60 cell line screen (SRB), UO-31; type: cell-based, human; conditions: Homo sapiens, UO-31, 48 h
# Method: as §1
# [18] = tested on: KM12; assay: NCI-60 cell line screen (SRB), KM12; type: cell-based, human; conditions: Homo sapiens, KM12, 48 h
# Method: as §1
# [19] = tested on: T-47D; assay: NCI-60 cell line screen (SRB), T-47D; type: cell-based, human; conditions: Homo sapiens, T47D, 48 h
# Method: as §1
# [20] = tested on: UACC-62; assay: NCI-60 cell line screen (SRB), UACC-62; type: cell-based, human; conditions: Homo sapiens, UACC-62, 48 h
# Method: as §1
# [21] = tested on: HS 578T; assay: NCI-60 cell line screen (SRB), HS 578T; type: cell-based, human; conditions: Homo sapiens, Hs-578T, 48 h
# Method: as §1
# [22] = tested on: HCC-2998; assay: NCI-60 cell line screen (SRB), HCC-2998; type: cell-based, human; conditions: Homo sapiens, HCC 2998, 48 h
# Method: as §1
# [23] = tested on: SNB-75; assay: NCI-60 cell line screen (SRB), SNB-75; type: cell-based; conditions: Homo sapiens, SNB-75, 48 h
# Method: as §1, with “temperature.” for “temperature. After staining, unbound dye is removed by washing five times with 1% acetic acid and the plates are air dried. Bound stain is subsequently solubilized with 10 mM trizma base, and the absorbance is read on an automated plate reader at a wavelength of 515 nm. For suspension cells, the methodology is the same except that the assay is terminated by fixing settled cells at the bottom of the wells by gently adding 50 μl of 80% TCA (final concentration, 16% TCA). Using the seven absorbance measurements [time zero, (Tz), control growth, (C), and test growth in the presence of drug at the five concentration levels (Ti)], the percentage growth is calculated at each of the drug concentrations levels.”
# [24] = tested on: SK-OV-3; assay: NCI-60 cell line screen (SRB), SK-OV-3; type: cell-based, human; conditions: Homo sapiens, SK-OV-3, 48 h
# Method: as §1
compound,measurement,setting,value
"CCCC[Si](C)(C)COc1ccc(C(=O)N[C@@H](Cc2ccc(-c3ccccc3)cc2)C(=O)NC2CC(C)(C)NC(C)(C)C2)cc1 [GH1504, N^α-{4-[(butyldimethylsilyl)methoxy]-benzoyl}-N-(2,2,6,6-tetramethylpiperidin-4-yl)-(4-phenyl-L-phenylalaninamide)]",GI50,[1],1170 nM
same,GI50,[2],368 nM
same,GI50,[3],1960 nM
same,GI50,[4],1540 nM
same,GI50,[5],1710 nM
same,GI50,[6],198 nM
same,GI50,[7],234 nM
same,GI50,[8],1810 nM
same,GI50,[9],886 nM
same,GI50,[10],215 nM
same,GI50,[11],332 nM
same,GI50,[12],1330 nM
same,GI50,[13],1550 nM
same,GI50,[14],1950 nM
same,GI50,[15],402 nM
same,GI50,[16],286 nM
same,GI50,[17],1550 nM
same,GI50,[18],376 nM
same,GI50,[19],1820 nM
same,GI50,[20],1150 nM
same,GI50,[21],1850 nM
same,GI50,[22],1110 nM
same,GI50,[23],1630 nM
same,GI50,[24],2120 nM
